Measurements published in patent publication US12251398B2, “Topical compositions designated to maintain and/or restore the integrity of the mucosa and damaged epidermis” (RICERFARMA S.R.L., priority 2020, dated 2025).

Key:
[1] = tested on: Hyaluronidase from bovine testes I-S Type; experiment: Enzymatic degradation of hyaluronic acid by hyaluronidase, Mw followed by HP-SEC-TDA; type: biochemical; conditions: in words
From the text: The molecular weight distribution of degraded acids will be analyzed by using High Performance Size Exclusion Chromatography coupled with a Triple Detector Array (HP-SEC-TDA).
The following is the list of reagents and materials used: • Hyaluronic acid (Mw 1.348.000 Da), Contipro a.s. (Czech Republic) • Hyaluronic acid (Mw 1.450.000 Da), Lehvoss Italia S.r.l. (Italy) • Glycerophosphocholine • Ascorbyl Palmitate • Citric acid monohydrate, Sigma Aldrich • Deionized H2O obtained with a Culligan apparatus; • Hyaluronidase from bovine testes I-S Type. 400-1000 units/mg. Sigma Aldrich; • NaNO3. Sigma Aldrich; • NaN3. Sigma Aldrich; • Snap-it vial 0.3 ml, 11.6×32 mm. Thermo Scientific; • Snap-it cap 11 mm, Thermo Scientific; • Sodium citrate diidrate, Sigma Aldrich. Samples Prepared and Tested:
10 ml of solution were hydrolyzed.
Buffer Solution: Solution 1 has been added to Solution 2 and stirred at room temperature for 30′. Resulting pH=6.06.
Hyaluronidase: about 10 mg of hyaluronidase were dissolved in about 1 ml of H2O and stirred at room temperature for 3 hours (10 mg/ml).
The solutions were stirred at 38° C. in an oil bath for about 1 h before adding 67 μl of the enzyme solution (HA/Hyaluronidase 15/1 w/w).
Different aliquots of solutions were collected at different timing (1 h; 2 h; 3 h; 4 h; 5 h; 6 h, 24 h) and heated at 100° C. for 5′ using a thermoshaker to denature the enzyme. The solutions were filtrated to remove the precipitated enzyme (LLG-Syringe filter CA pore size 0.20 μm. Ø 13 mm). Before HP-SEC-TDA analyses, the solutions were diluted to 0.5 mg/ml of HA with mobile phase.
Two equivalent HP-SEC-TDA instruments were used: • 1) Viscotek system model TDA305. equipped with Refractive Index, Right and Low Angle Light Scattering and Viscometers detectors, was used under the following conditions: • Columns: 2 columns TSKGMPWXL 13 μm. […]

[2] = tested on: hyaluronidases; conditions: known, in words; cited from earlier work
[3] = as disclosed in WO93/19730; cited from earlier work

CCCCCCCCCCCCCCCC(=O)OC[C@H](O)[C@H]1OC(=O)C(O)=C1O [Ascorbyl Palmitate, Ascorbyl palmitate]
effect on the enzymatic kinetics of HA degradation [1]: significantly effective in slowing down the enzymatic kinetics | effect on the enzymatic kinetics of HA degradation ([1]; listed as ascorbyl palmitate): significantly effective in slowing enzymatic kinetics | inhibitory activity against hyaluronidases [2]: significant inhibitory activity

C[N+](C)(C)CCOP(=O)([O-])OC[C@H](O)CO [Glycerophosphocholine]
effect on the enzymatic kinetics of HA degradation [1]: does not contribute in any way to the enzymatic kinetics | systemic toxicity [3]: practically devoid of systemic toxicity | topical tolerability [3]: marked topical tolerability
